Patent US10927105B1 (Lundbeck La Jolla Research Center, Inc., priority 2017, dated 2021)

molecular target: MAGL (Homo sapiens (Human), UniProt Q99685); test: In vitro competitive activity-based protein profiling (human prefrontal cortex membrane fractions, FP-Rh probe), MAGL band; conditions: read-out: MAGL IC50 (μM) (human); human prefrontal cortex membrane fractions
Sequence (Q99685 whole entry): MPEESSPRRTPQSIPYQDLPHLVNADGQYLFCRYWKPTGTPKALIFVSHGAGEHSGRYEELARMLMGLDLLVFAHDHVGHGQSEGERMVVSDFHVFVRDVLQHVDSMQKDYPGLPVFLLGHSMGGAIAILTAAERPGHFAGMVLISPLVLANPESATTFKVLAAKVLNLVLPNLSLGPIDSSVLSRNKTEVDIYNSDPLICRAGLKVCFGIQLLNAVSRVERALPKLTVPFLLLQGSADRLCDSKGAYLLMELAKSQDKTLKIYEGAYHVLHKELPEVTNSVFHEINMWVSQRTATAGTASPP

SMILES	IC50 [µM]
O=C(O)c1ccn(C(=O)N2C[C@H]3C[C@H](Oc4ccccc4C4CCOCC4)C[C@H]3C2)n1 [Example 268, 1-(trans-5-(2-(tetrahydro-2H-pyran-4-yl)phenoxy)-octahydrocyclopenta-[c]pyrrole-2-carbonyl)-1H-pyrazole-3-carboxylic acid]	< 0.1
CC(C)c1ccccc1O[C@H]1C[C@@H]2CN(C(=O)n3ccc(C(=O)O)n3)C[C@@H]2C1 [Example 221, 1-(trans-5-(2-isopropylphenoxy)-octahydrocyclopenta-[c]pyrrole-2-carbonyl)-1H-pyrazole-3-carboxylic acid]	< 0.1
C[C@@H]1CN(Cc2ccc(Cl)c(-c3nccs3)c2)CCN1C(=O)n1ccc(C(=O)O)n1 [Example 299, (R)-1-(4-(4-chloro-3-(thiazol-2-yl)benzyl)-2-methylpiperazine-1-carbonyl)-1H-pyrazole-3-carboxylic acid]	< 0.1
O=C(O)c1ccn(C(=O)N2C[C@H]3C[C@H](Oc4cccc(C(F)(F)F)c4)C[C@H]3C2)n1 [Example 231, 1-(trans-5-(3-(trifluoromethyl)-phenoxy)-octahydrocyclopenta-[c]pyrrole-2-carbonyl)-1H-pyrazole-3-carboxylic acid]	< 0.1
O=C(O)c1ccn(C(=O)N2C[C@H]3C[C@H](Oc4cccc(C5CC5)c4)C[C@H]3C2)n1 [Example 219, 1-(trans-5-(3-cyclopropyl-phenoxy)-octahydrocyclopenta-[c]pyrrole-2-carbonyl)-1H-pyrazole-3-carboxylic acid]	< 0.1
O=C(O)c1ccn(C(=O)N2CCN(Cc3ccc(C(F)(F)F)cc3N3CC4CCC(C3)O4)CC2)n1 [Example 380, 1-(4-(2-(8-oxa-3-azabicyclo[3.2.1]-octan-3-yl)-4-(trifluoromethyl)-benzyl)piperazine-1-carbonyl)-1H-pyrazole-3-carboxylic acid]	< 0.1
CNC(=O)c1ccn(C(=O)N2CC3CN(Cc4cccc(C(F)(F)F)c4)CC3C2)n1 (stereo not drawn) [Example 432, N-methyl-1-(5-(3-(trifluoromethyl)-benzyl)-octahydropyrrolo-[3,4-c]pyrrole-2-carbonyl)-1H-pyrazole-3-carboxamide]	< 0.1
O=C(O)c1ccn(C(=O)N2CCN(Cc3cc(F)cc(Oc4ccccc4Cl)c3)CC2)n1 [Example 319, 1-(4-(3-(2-chlorophenoxy)-5-fluorobenzyl)-piperazine-1-carbonyl)-1H-pyrazole-3-carboxylic acid]	< 0.1
NC(=O)c1ccn(C(=O)N2CCC3(CCN(Cc4ccc(N5CCOCC5)cc4Cl)C3)CC2)n1 [Example 197, 1-(2-(2-chloro-4-morpholinobenzyl)-2,8-diazaspiro[4.5]-decane-8-carbonyl)-1H-pyrazole-3-carboxamide]	< 0.1
O=C(O)c1ccn(C(=O)N2CCC3(CCN(Cc4cc(Cl)ccc4C(F)(F)F)C3)CC2)n1 [Example 43, 1-(2-(5-chloro-2-(trifluoromethyl)-benzyl)-2,8-diazaspiro[4.5]-decane-8-carbonyl)-1H-pyrazole-3-carboxylic acid]	< 0.1
CN(Cc1cccc(C(F)(F)F)c1)C1(C)CCN(C(=O)n2ccc(C(N)=O)n2)CC1 [Example 258]	< 0.1
NC(=O)c1ccn(C(=O)N2CCC3(CCN(Cc4cccc(C(F)(F)F)c4)C3)CC2)n1 [Example 284, 1-(2-(3-(trifluoromethyl)-benzyl)-2,8-diazaspiro[4.5]-decane-8-carbonyl)-1H-pyrazole-3-carboxamide]	< 0.1
NC(=O)c1ccn(C(=O)N2CCN(Cc3cccc(C(F)(F)F)c3N3CCOCC3)CC2)n1 [Example 199, 1-(4-(2-morpholino-3-(trifluoromethyl)-benzyl)piperazine-1-carbonyl)-1H-pyrazole-3-carboxamide]	< 0.1
O=C(O)c1ccn(C(=O)N2CCC3(CCN(Cc4cccc(C(F)(F)F)c4Cl)C3)CC2)n1 [Example 339, 1-(2-(2-chloro-3-(trifluoromethyl)-benzyl)-2,8-diazaspiro[4.5]-decane-8-carbonyl)-1H-pyrazole-3-carboxylic acid]	< 0.1
Cc1cn(C(=O)N2CCN(Cc3cccc(Oc4ccc(Cl)cc4)c3)C[C@@H]2C)nc1C(=O)O [Example 442, (S)-1-(4-(3-(4-chlorophenoxy)-benzyl)-2-methylpiperazine-1-carbonyl)-4-methyl-1H-pyrazole-3-carboxylic acid]	< 0.1
NC(=O)c1ccn(C(=O)N2CCC3(CCN(Cc4cc(Cl)ccc4Cl)C3)C2)n1 (stereo not drawn) [Example 426, 1-(7-(2,5-dichlorobenzyl)-2,7-diazaspiro[4.4-]-nonane-2-carbonyl)-1H-pyrazole-3-carboxamide]	< 0.1
O=C(O)c1nn(C(=O)N2CCC3(CC2)CN(Cc2cc(Cl)ccc2C(F)(F)F)C3)cc1Cl [Example 134, 4-chloro-1-(2-(5-chloro-2-(trifluoromethyl)-benzyl)-2,7-diazaspiro[3.5]-nonane-7-carbonyl)-1H-pyrazole-3-carboxylic acid]	< 0.1
CN(Cc1cc(Cl)ccc1C(F)(F)F)CC1CCN(C(=O)n2ccc(C(=O)O)n2)CC1 [Example 209, 1-(4-(((5-chloro-2-(trifluoromethyl)-benzyl)-(methyl)amino)-methyl)piperidine-1-carbonyl)-1H-pyrazole-3-carboxylic acid]	< 0.1
O=C(O)c1ccn(C(=O)N2C[C@H]3C[C@H](OCc4cccc(C5CCCC5)c4)C[C@H]3C2)n1 [Example 34, 1-(trans-5-((3-Cyclopentylbenzyl)oxy)octahydrocyclopenta[c]pyrrole-2-carbonyl)-1H-pyrazole-3-carboxylic Acid]	< 0.1
O=C(O)c1ccn(C(=O)N2CCC3(CCN(Cc4cc(Cl)cc(C(F)(F)F)c4)C3)CC2)n1 [Example 72, 1-(2-(3-chloro-5-(trifluoromethyl)-benzyl)-2,8-diazaspiro[4.5]-decane-8-carbonyl)-1H-pyrazole-3-carboxylic acid]	< 0.1
O=C(O)c1ccn(C(=O)N2CCC3(CCN(Cc4cc(Cl)cc(Cl)c4)C3)CC2)n1 [Example 162, 1-(2-(3,5-dichlorobenzyl)-2,8-diazaspiro[4.5]-decane-8-carbonyl)-1H-pyrazole-3-carboxylic acid]	< 0.1
CNC(=O)c1ccn(C(=O)N2C[C@H]3C[C@@H](N(C)Cc4ccccc4C(F)(F)F)C[C@H]3C2)n1 [Example 434, N-methyl-1-(cis-5-(methyl(2-(trifluoromethyl)-benzyl)amino)-octahydrocyclopenta-[c]pyrrole-2-carbonyl)-1H-pyrazole-3-carboxamide]	< 0.1
O=C(O)c1ccn(C(=O)N2CCN(Cc3ccc(C(F)(F)F)cc3N3CC[C@@H](O)C3)CC2)n1 [Example 333, (R)-1-(4-(2-(3-hydroxypyrrolidin-1-yl)-4-(trifluoromethyl)-benzyl)-piperazine-1-carbonyl)-1H-pyrazole-3-carboxylic acid]	< 0.1
CN(Cc1cc(Cl)ccc1C(F)(F)F)C1CCN(C(=O)n2ccc(C(=O)O)n2)CC1 [Example 81, 1-(4-((5-chloro-2-(trifluoromethyl)-benzyl)-(methyl)amino)-piperidine-1-carbonyl)-1H-pyrazole-3-carboxylic acid]	< 0.1
